Experimental data published in EP4722195A1, “PH-SENSITIVE CATIONIC LIPID AND LIPID NANOPARTICLES” (National University Corporation Hokkaido University, priority 2023, dated 2024).

Key:
[1] = Encapsulation rate of lipid nanoparticles (Ribogreen); assay type: physicochemical
Outline: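 Ribogreen fluorescence (Ex/Em 500/525 nm) measured after mixing sample 1:1 with 10 mM HEPES pH 7.4 buffer with or without Triton X-100. mRNA quantified from a calibration curve of known mRNA dilutions; encapsulation rate (%) calculated from Triton(+) versus Triton(−) signals.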

[2] = Average particle size and polydispersity index of lipid nanoparticles (dynamic light scattering); assay type: physicochemical
Procedure: The average particle size (number average value), ζ-average particle size, and polydispersity index (PdI) of the lipid nanoparticles in PBS(-) (pH 7.4), and the zeta potential in 10 mM HEPES buffer (pH 7.4) were measured using an analyzer "Zetasizer Nano ZS ZEN3600" (manufactured by Malvern) utilizing dynamic light scattering.

[3] = Apparent pKa of lipid nanoparticles (TNS)
liver [4] = assay: Fluc activity in the liver of mice administered Fluc mRNA-loaded lipid nanoparticles; assay type: in vivo, BALB/c mice
Procedure: Lipid nanoparticles were administered to mice by intravenous injection into the tail vein using a 27G needle. Unless otherwise specified, BALB/c mice (4 to 5 weeks old, female) were used.
First, BALB/c mice (female, 4 weeks old) were intravenously injected with lipid nanoparticles encapsulating Fluc mRNA (Fluc mRNA-loaded lipid nanoparticles) at a dose of 0.1 mg mRNA/kg. Six hours after intravenous injection, the mice were euthanized, each tissue was collected, frozen in liquid nitrogen, and stored at -80°C. The tissues were homogenized in passive lysis buffer (manufactured by Promega) using a bead-type cell disruptor (Micro Smash MS-100R, manufactured by TOMY Seiko). Tissue debris was removed by centrifugation, and the supernatant was collected. Fluc activity in the supernatant was measured using the Luciferase Assay System (E1500, manufactured by Promega) according to the manufacturer's protocol. Luminescence was measured using a luminometer (Luminescencer-PSN, manufactured by ATTO). Protein concentration was determined using a commercially available assay kit (BCA Protein Assay Kit, manufactured by Pierce). Fluc activity was expressed as relative light units (RLU) per mg of protein.
Subsequently, lipid nanoparticles encapsulating Fluc mRNA prepared using TxT-5-5A10, TxT-5-5A12, TxT-5-5A12β, TxT-5-5A14, and TxT-5-5A16 were administered to mice to evaluate luciferase expression levels (Fluc activity) in various tissues. Specifically, each Fluc mRNA-loaded lipid nanoparticle was administered to Balb/c mice at a dose of 0.1 mg mRNA/kg. Six hours after administration, the mice were euthanized, and their organs were collected to measure Fluc activity (RLU/mg protein) (N = 2 or 4).

liver [5] = assay: EGFP expression in liver tissue sections of mice administered EGFP mRNA-loaded lipid nanoparticles (confocal microscopy); assay type: in vivo, Balb/c mice; conditions: Example 27, Fig. 6; EGFP mRNA-loaded lipid nanoparticles TxT/DSPC/chol/PEG-DMG=50/3/47/1.5 (mol%); 24 hours post-administration
Outline: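 Balb/c mice received EGFP mRNA-loaded lipid nanoparticles at 0.2 mg mRNA/kg, with DyLight-649 tomato lectin given i.v. at 40 µg/mouse at 23 h 50 min to mark vascular endothelium. Livers taken at 24 h were sectioned, Hoechst 33342-stained (1 µg/mL), and imaged by confocal laser scanning microscopy.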

[6] = Table 1, Fluc mRNA-loaded lipid nanoparticles, TxT/DSPC/chol/PEG-DMG=50/15/35/1.5 (mol%)
[7] = Table 2, Fluc mRNA-loaded lipid nanoparticles, TxT-5-5A16/DSPC/chol/PEG-DMG=50/X/50-X/1.5 (mol%), DSPC concentration 3 mol %
[8] = Table 2, Fluc mRNA-loaded lipid nanoparticles, TxT-5-5A16/DSPC/chol/PEG-DMG=50/X/50-X/1.5 (mol%), DSPC concentration 6 mol %
[9] = Table 2, Fluc mRNA-loaded lipid nanoparticles, TxT-5-5A16/DSPC/chol/PEG-DMG=50/X/50-X/1.5 (mol%), DSPC concentration 9 mol %
[10] = Table 2, Fluc mRNA-loaded lipid nanoparticles, TxT-5-5A16/DSPC/chol/PEG-DMG=50/X/50-X/1.5 (mol%), DSPC concentration 12 mol %
[11] = Table 2, Fluc mRNA-loaded lipid nanoparticles, TxT-5-5A16/DSPC/chol/PEG-DMG=50/X/50-X/1.5 (mol%), DSPC concentration 15 mol %
[12] = Table 3, Fluc mRNA-loaded lipid nanoparticles, TxT/DSPC/chol/PEG-DMG=50/3/47/1.5 (mol%)
[13] = Table 5, EGFP mRNA-loaded lipid nanoparticles, TxT/DSPC/chol/PEG-DMG=50/3/47/1.5 (mol%), total flow rate 3.0 mL/min
[14] = Example 23, Fig. 2A, TxT-5-5A16/DSPC/chol/PEG-DMG=50/X/50-X/1.5 (mol%), 0.1 mg mRNA/kg, six hours

In the case of `CCCCCCCCN(CCCCCCCC)C(=O)CCCC(=O)OCC(COC(=O)CCCC(=O)N(CCCCCCCC)CCCCCCCC)(COC(=O)CCCC(=O)N(CCCCCCCC)CCCCCCCC)NC(=O)CCN1CCCCC1` [TxT-5-5A16, 2-(((5-(dioctylamino)-5-oxopentanoyl)oxy)methyl)-2-(3-(piperidin-1-yl)propanamido)propane-1,3-diyl bis(5-(dioctylamino)-5-oxopentanoate)], the mRNA concentration [1, 6] is reported as 0.020 µg/µL, the mRNA encapsulation rate [1, 6] is reported as 96.7% and the mRNA concentration [1, 7] is reported as 0.023 µg/µL. It also gave a mRNA encapsulation rate [1, 7] of 98.8%, a mRNA concentration [1, 8] of 0.024 µg/µL and a mRNA encapsulation rate [1, 8] of 98.9%. The mRNA concentration [1, 9] was 0.024 µg/µL, the mRNA encapsulation rate [1, 9] was 98.3% and the mRNA concentration [1, 10] was 0.024 µg/µL. The mRNA encapsulation rate [1, 10] was 97.0%, the mRNA concentration [1, 11] was 0.020 µg/µL and the mRNA encapsulation rate [1, 11] was 95.6%. It also gave a mRNA concentration [1, 12] of 0.023 µg/µL, a mRNA encapsulation rate [1, 12] of 98.8% and a mRNA concentration [1, 13] of 0.022 µg/µL. The mRNA encapsulation rate [1, 13] was 99.2%, the Pdl [2, 6] was 0.11 and the “number average particle size” value [2, 6] was 61.0 nm. The ζ-average particle size [2, 6] was 85.6 nm, the Pdl [2, 7] was 0.0 and the “number average particle size” value [2, 7] was 93.3 nm. The ζ-average particle size [2, 7] was 114.0 nm, the Pdl [2, 8] was 0.04 and the “number average particle size” value [2, 8] was 78.6 nm. The ζ-average particle size [2, 8] was 96.8 nm, the Pdl [2, 9] was 0.08 and the “number average particle size” value [2, 9] was 66.3 nm. For the same compound, the ζ-average particle size [2, 9] was 90.2 nm, the Pdl [2, 10] was 0.07 and the “number average particle size” value [2, 10] was 64.4 nm. The ζ-average particle size [2, 10] was 85.1 nm, the Pdl [2, 11] was 0.14 and the “number average particle size” value [2, 11] was 60.8 nm. The ζ-average particle size [2, 11] was 88.3 nm, the Pdl [2, 12] was 0.03 and the “number average particle size” value [2, 12] was 93.3 nm. The ζ-average particle size [2, 12] was 114.0 nm, the Pdl [2, 13] was 0.04 and the “number average particle size” value [2, 13] was 112.5 nm. It also gave a ζ-average particle size [2, 13] of 132.4 nm, a pKa ([3]; Table 1, apparent pKa of Fluc mRNA-loaded lipid nanoparticles, TxT/DSPC/chol/PEG-DMG=50/15/35/1.5 (mol%)) of 6.27 and a pKa [3, 7] of 6.28. It also gave a pKa [3, 8] of 5.88, a pKa [3, 9] of 5.41 and a pKa [3, 10] of 6.24. The pKa [3, 11] was 6.36, the pKa [3, 12] was 6.28 and the “Fluc activity in the liver” value (liver [4]; Example 22, Fig. 1, TxT/DSPC/chol/PEG-DMG=50/15/35/1.5 (mol%), 0.1 mg mRNA/kg intravenous, six hours after administration, comparison among TxT lipids) was “highest Fluc activity in the liver”. The “Effect of DSPC content on Fluc activity in the liver” value (liver [4]; [14]) was “Fluc activity increased as the DSPC content decreased”, the “Fluc activity in the liver, 3 mol% DSPC compared to 15 mol% DSPC” value (liver [4]; [14]) was “approximately 10 times” and the “fluorescence of EGFP in the liver tissues” value (liver [5]) was “not detectable”.
